Source: patent US9694019B2, “Compositions and methods for treating bone diseases and broken bones” (BRIGHAM YOUNG UNIVERSITY, priority 2011, dated 2017)
Residues, ends and D or L forms follow the SMILES beside them. *: point of attachment. Cbz = O=C(OCc1ccccc1)*; OtBu = CC(C)(C)O*

Test system: primary human MSC cells
Experiment: BMP regulation: gene expression array (SABiosciences PAHS-026) in primary human MSC cells
Format: cell-based
Settings: hMSC, 8 hours
Procedure: SABisosciences custom array plates (Cat#PAHS-026) were used to measure BMP expression. These array plates are validated for efficiency when used at recommended conditions and reagents. On day 1, primary human MSC cells were plated at 200,000 cell/well using 6-well plates with 10% FBS, Penicillin and Streptomycin 10 mL per Liter, in recommended media. Only early passages of cells were used.
On day 2, cells were treated with compounds dissolved in DMSO diluted 1:1000 or more to avoid solvent effects. A non-treated negative control group was evaluated (FIG. 1, “Control Group”) along with a positive control group containing PS1 at 0.1 μM (FIG. 1, “Group 1”). Final testing concentration for CSA-90 was 5.0 μM (FIG. 1, “Group 2”), 2.5 μM (FIG. 1, “Group 3”), and 1.2 μM (FIG. 1, “Group 4”). Treatment lasted 8 hours, followed by RNA isolation using a QIAGEN Miniprep Kit. RNA was measured at 260/280 nm using NanoDrop2000 and normalized to 250 ng. cDNA preparation was done using QIAGEN First Strand kit.

[1] = PS1 0.1 μM, v. untreated control

CC[C@H](C)[C@H](NC(=O)OCc1ccccc1)C(=O)N[C@@H](CCC(=O)OC(C)(C)C)C(=O)N[C@@H](C)C(=O)N[C@H](C=O)CC(C)C [PS1, reference compound] (Cbz-IE(OtBu)AL-aldehyde)
up-regulation of BMP-2 mRNA compared to the control (0.1 μM): 3 fold | Fold Up-Regulation ACTB (Actin, beta) [1]: −1.4183 fold | Fold Up-Regulation AHSG (Alpha-2-HS-glycoprotein) [1]: −1.3295 fold | Fold Up-Regulation ALPL (Alkaline phosphatase, liver/bone/kidney) [1]: −1.4723 fold | Fold Up-Regulation AMBN (Ameloblastin) [1]: −1.9272 fold | Fold Up-Regulation AMELY (Amelogenin, Y-linked) [1]: −1.8864 fold | Fold Up-Regulation ANXA5 (Annexin A5) [1]: 1.1236 fold | Fold Up-Regulation BGLAP (Bone gamma-carboxyglutamate (gla) protein) [1]: −1.3879 fold | Fold Up-Regulation BGN (Biglycan) [1]: −1.1323 fold | Fold Up-Regulation BMP-1 (Bone morphogenetic protein 1) [1]: −1.1214 fold | Fold Up-Regulation BMP-2 (Bone morphogenetic protein 2) [1]: 3.0816 fold | Fold Up-Regulation BMP-3 (Bone morphogenetic protein 3) [1]: −1.1038 fold | Fold Up-Regulation BMP-4 (Bone morphogenetic protein 4) [1]: −2.2148 fold | Fold Up-Regulation BMP-5 (Bone morphogenetic protein 5) [1]: 1.124 fold | Fold Up-Regulation BMP-6 (Bone morphogenetic protein 6) [1]: 2.642 fold | Fold Up-Regulation CALCR (CALCITONIN RECEPTOR) [1]: 1.124 fold | Fold Up-Regulation CD36 (CD36 molecule, thrombospondin receptor) [1]: −1.0202 fold | Fold Up-Regulation CDH11 (Cadherin 11, type 2, OB-cadherin) [1]: −2.2309 fold | Fold Up-Regulation COL1A1 (Collagen, type I, alpha 1) [1]: −1.1935 fold | Fold Up-Regulation COL1A2 (Collagen, type I, alpha 2) [1]: −1.0689 fold | Fold Up-Regulation COL2A1 (Collagen, type II, alpha 1) [1]: −1.4242 fold | Fold Up-Regulation COL3A1 (Collagen, type III, alpha 1) [1]: −1.0806 fold | Fold Up-Regulation COL4A3 (Collagen, type IV, alpha 3) [1]: −1.0619 fold | Fold Up-Regulation COL5A1 (Collagen, type V, alpha 1) [1]: 1.0927 fold | Fold Up-Regulation COL10A1 (Collagen, type X, alpha 1) [1]: 1.5421 fold | Fold Up-Regulation COL11A1 (Collagen, type XI, alpha 1) [1]: −1.4875 fold | Fold Up-Regulation COL12A1 (Collagen, type XII, alpha 1) [1]: 1.0767 fold | Fold Up-Regulation COL14A1 (Collagen, type XIV, alpha 1) [1]: −1.5279 fold | Fold Up-Regulation COL15A1 (Collagen, type XV, alpha 1) [1]: 1.2144 fold | Fold Up-Regulation COMP (Cartilage oligomeric matrix protein) [1]: 1.2648 fold | Fold Up-Regulation CSF2 (Colony stimulating factor 2) [1]: 6.205 fold | Fold Up-Regulation CSF3 (Colony stimulating factor 3) [1]: −2.4364 fold | Fold Up-Regulation CTSK (Cathepsin K) [1]: −1.2679 fold | Fold Up-Regulation DMP1 (Dentin matrix acidic phosphoprotein 1) [1]: 1.124 fold | Fold Up-Regulation DSPP (Dentin sialophosphoprotein) [1]: 1.124 fold | Fold Up-Regulation EGF (Epidermal growth factor) [1]: −1.2529 fold | Fold Up-Regulation EGFR (Epidermal growth factor receptor) [1]: −1.8532 fold | Fold Up-Regulation ENAM (Enamelin) [1]: 1.124 fold | Fold Up-Regulation FGF1 (Fibroblast growth factor 1) [1]: −1.4948 fold | Fold Up-Regulation FGF2 (Fibroblast growth factor 2) [1]: 1.3957 fold | Fold Up-Regulation FGF3 (Fibroblast growth factor 3) [1]: −1.3257 fold | Fold Up-Regulation FGFR1 (Fibroblast growth factor receptor 1) [1]: −1.0999 fold | Fold Up-Regulation FGFR2 (Fibroblast growth factor receptor 2) [1]: −1.2644 fold | Fold Up-Regulation FLT1 (Fms-related tyrosine kinase 1) [1]: −2.7821 fold | Fold Up-Regulation FN1 (Fibronectin 1) [1]: 1.099 fold | Fold Up-Regulation GAPDH (Glyceraldehyde-3-phosphate dehydrogenase) [1]: 1.161 fold | Fold Up-Regulation GDF10 (Growth differentiation factor 10) [1]: 1.124 fold | Fold Up-Regulation ICAM1 (Intercellular adhesion molecule 1) [1]: 1.5053 fold | Fold Up-Regulation IGF1 (Insulin-like growth factor 1) [1]: 1.5067 fold | Fold Up-Regulation IGF1R (Insulin-like growth factor 1 receptor) [1]: −1.0699 fold | Fold Up-Regulation IGF2 (Insulin-like growth factor 2) [1]: −1.2388 fold | Fold Up-Regulation ITGA1 (Integrin, alpha 1) [1]: 1.325 fold | Fold Up-Regulation ITGA2 (Integrin, alpha 2) [1]: −1.0945 fold | Fold Up-Regulation ITGA3 (Integrin, alpha 3) [1]: −1.8917 fold | Fold Up-Regulation ITGAM (Integrin, alpha M) [1]: 1.3319 fold | Fold Up-Regulation ITGB1 (Integrin, beta 1) [1]: 1.1614 fold | Fold Up-Regulation MMP2 (Matrix metallopeptidase 2) [1]: −1.1194 fold | Fold Up-Regulation MMP8 (Matrix metallopeptidase 8) [1]: 3.7453 fold | Fold Up-Regulation MMP9 (Matrix metallopeptidase 9) [1]: −1.2449 fold | Fold Up-Regulation MMP10 (Matrix metallopeptidase 10) [1]: 1.3516 fold | Fold Up-Regulation MSX1 (Msh homeobox 1) [1]: 6.2916 fold | Fold Up-Regulation NFKB1 (Nuclear factor of kappa light polypeptide gene enhancer in B-cells 1) [1]: −1.1038 fold | Fold Up-Regulation PDGFA (Platelet-derived growth factor alpha polypeptide) [1]: 1.0421 fold | Fold Up-Regulation PHEX (Phosphate regulating endopeptidase homolog, Xlinked) [1]: 1.9871 fold | Fold Up-Regulation RUNX2 (Runt-related transcription factor 2) [1]: −3.542 fold | Fold Up-Regulation SCARB1 (Scavenger receptor class B, member 1) [1]: 1.1791 fold | Fold Up-Regulation SERPIN H1 (Serpin peptidase inhibitor, clade H, member 1) [1]: 1.4764 fold | Fold Up-Regulation SMAD1 (SMAD family member 1) [1]: −1.2813 fold | Fold Up-Regulation SMAD2 (SMAD family member 2) [1]: 1.0462 fold | Fold Up-Regulation SMAD3 (SMAD family member 3) [1]: −2.771 fold | Fold Up-Regulation SMAD4 (SMAD family member 4) [1]: 1.3022 fold | Fold Up-Regulation STATH (Statherin) [1]: −2.2674 fold | Fold Up-Regulation TFIP11 (Tuftelin interacting protein 11) [1]: 1.1041 fold | Fold Up-Regulation TGFB1 (Transforming growth factor, beta 1) [1]: −1.2644 fold | Fold Up-Regulation TGFB2 (Transforming growth factor, beta 2) [1]: 1.0081 fold | Fold Up-Regulation TGFB3 (Transforming growth factor, beta 3) [1]: 2.2234 fold | Fold Up-Regulation TGFBR1 (Transforming growth factor, beta receptor 1) [1]: 2.0059 fold | Fold Up-Regulation TGFBR2 (Transforming growth factor, beta receptor II) [1]: −2.3752 fold | Fold Up-Regulation TNF (Tumor necrosis factor) [1]: 1.8055 fold | Fold Up-Regulation TUFT1 (Tuftelin 1) [1]: 1.4326 fold | Fold Up-Regulation TWIST1 (Twist homolog 1) [1]: −2.197 fold | Fold Up-Regulation VCAM1 (Vascular cell adhesion molecule 1) [1]: −2.406 fold | Fold Up-Regulation VDR (Vitamin D (1,25-dihydroxyvitamin D3) receptor) [1]: −1.5248 fold | Fold Up-Regulation VEGFA (Vascular endothelial growth factor A) [1]: −1.0162 fold | Fold Up-Regulation VEGFB (Vascular endothelial growth factor B) [1]: −1.1191 fold
